Experimental data: patent publication USRE43371E1, “Use of selected cyclosporins for the treatment of hepatitis C infection” (priority 2004, dated 2012)
≈ marks a conversion by molar mass, not a printed value.

How the values were obtained:
[1] = system: HCV replicon-containing MH-14 cells; conditions: cited from earlier work; for HCV RNA accumulation was inhibited: Northern blot and quantitative RT-PCR
cyclophilin = target: T1, cyclophilin (Homo sapiens, UniProt P62937); assay: Peptidyl-prolyl cis-trans isomerase (PPIase) activity of cyclophilin, chymotrypsin-coupled Suc-AAPF-pNA assay; type: biochemical; conditions: compared with substitution in position 4 only
T1 construct: purchased Sigma
T1 sequence (P62937 whole entry): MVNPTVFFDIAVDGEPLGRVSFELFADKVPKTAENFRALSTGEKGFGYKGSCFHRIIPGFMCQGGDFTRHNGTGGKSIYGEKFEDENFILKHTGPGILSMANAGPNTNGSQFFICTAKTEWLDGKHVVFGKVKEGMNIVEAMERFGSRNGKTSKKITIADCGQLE
Description: Peptidyl-prolyl cis-trans isomerase (PPlase) activity of cyclophilins was determined using a procedure adapted from Kofron et al. (see Biochemistry 30, 6127-6134 (1991); J. Am. Chem. Soc. 114, 2670-2675 (1992)). N-succinylated Ala-Ala-Pro-Phe-para nitro-aniline (Suc-AAPF-pNA, Bachem, Bubendorf, Switzerland) was used as the substrate. The assay was based on the preferential chymotrypsin cleavage of the trans isoform of the Phe-pNA bond in the tetrapeptide Ala-Ala-Pro-Phe-pNA. This cleavage liberates the para-nitroaniline moiety that can be detected and quantitated at 390 nm (ε=11,814 M^−1cm^−1). […] Cis-trans isomerization is catalysed by cyclophilin (PPlase, EC 5.2.1.8). […] Subsequent to the addition of 3.75 mg of chymotrypsin (70 μl of a solution of chymotrypsin in 10 mM HCl), the reaction was initiated by addition of 10 μl of a 3.2 mM solution of Suc-AAPF-pNA in 0.5 M LiCl/trifluoroethanol. The reaction was monitored for 3 min, and an initial rate constant was determined from the data obtained. As a control, an initial rate constant was also determined for a parallel reaction that lacked cyclophilin.

[2] = Initial phase I clinical studies, safety of oral doses; type: in vivo
Description: Initial phase I clinical studies were carried out to assess the safety of oral doses of [D-MeAla]^3-[EtVal]^4-CsA, and to determine the pharmacokinetic profile and safety profile of the drug substance. […] These side effects were not dose-related.

[3] = system: Jc1-Luc recombinant virus (HCV strains J6/JFH1) in Huh-7-Lunet and Huh-7.5 cells; assay: Luciferase assay in hepatoma cells infected with Jc1-Luc recombinant HCV; type: cell-based, hepatitis C virus (HCV); conditions: Huh-7-Lunet and Huh-7.5 cells infected with Jc1-Luc; for antiviral activity: 72 hours (FIGS. 1 and 2)
Excerpt: The method used hepatoma cells that had been infected with an infectious full length cheieric HCV construct or the same virus that was modified to carry a luciferase […] gene.
Infectious HCV viruses of full-length chimeric genome between HCV strains J6 and JFH1 (Jc1) were used to inoculate the hepatoma cells of the assays. The construct of Jc1 virus was also modified to obtain a bicistronic genome carrying a luciferase reporter gene (Jc1-Luc). Twenty-four and ninety-six hours after the transfection of RNA transcripts of the genomes by electroporation of Huh-7.5 cells, cell culture supernatant was collected. Supernatants were filtered ([…]) and cell culture infectious dose 50 (CCID50) per ml were determined by the limiting dilution assays according to Lindenbach et al. (Science, 309, (2005), 623-626). The CCID50 were 1.3×105 for Jc1 and 4.2×103 for Jc1-Luc.
Assays used either Huh-7-Lunet or Huh-7.5 cells (Lohmann et al., Science 285(5424), (1999), 110-113). Cells were grown in Dulbecco's modified Eagle's Medium (DMEM; Gibco) supplemented with 10% heat-inactivated fetal bovine serum (FCS) (Integro), 1× non-essential amino acids (Gibco), 100 IU/ml penicillin (Gibco), 100 μg/ml streptomycin (Gibco) or 25 μg/ml hygromycin (Gibco) for Huh-mono cells at 37° C. and 5% CO2. For antiviral (replication) assays, Huh-7-Lunet and Huh-7.5 cells were seeded at a density of 2×104 or 4×10^4 cells per well of a 12-well plate. Twenty four hours later, the medium was replaced by 0.5 ml of the Jc1-Luc virus stock (12-well plates) or 0.25 ml of the Jc1 virus stock (12-well plates).
The inhibition of viral replication were estimated by luciferase assay. To carry out luciferase assay, cells were harvested, washed with PBS and lysed in luciferase lysis buffer (1% Triton X-100, 25 mM glycylglycine, 15 mM MgSO4, 4 mM EGTA, and 1 mM DTT). Firefly luciferase activity was measured according to Krieger et al. (J Virol, 75(10), (2001), 4614-4624). […] Finally, luminescence was measured by using a Lumat LB9507 luminometer (Berthold) for 20 samples.

[4] = system: HCV replicon in Huh-9-13 cells; assay: HCV replicon clearance and rebound in Huh-9-13 cells; type: cell-based, hepatitis C virus (HCV); conditions: after 7 consecutive passages at 0.5 or 1 μg/ml; G418 1000 μg/ml for 2 passages (FIG. 3)
Description: Assays used Huh-9-13 cells, human hepatoma cells (Huh-7) (Lohmann et al., Science 285(5424), (1999), 110-113) Cells were grown in the usual complete medium DMEM without G418 pressure.
RT-PCR were performed on extracts of viral RNA of samples taken at different passage points. The forward and reverse primers used were 5′-[sequence]-3′ and 5′-[sequence]-3′, respectively. The fluorogenic probe was 5′-[sequence]-3′. As an internal control, a plasmid containing part of the neomycin phosphotransferase gene sequence was used. Results were analysed and expressed as a quantity of replicon RNA (ng) per 1′000 cells and used to draft a graph.

[5] = target: T2, human recombinant cyclophilin A (Homo sapiens, UniProt P62937); assay: PPIase activity of cyclophilin A, tight binding inhibitor analysis; type: biochemical; conditions: for k: rate constant for the rate limiting reaction; for Et: total enzyme concentration from tight binding fit
T2 construct: purchased Sigma
T2 sequence (P62937 whole entry): as above
Description: Commercial human recombinant cyclophilin A (Sigma) was used in the assays. PPlase activity of cyclophilins was determined using a chymotrypsin-coupled spectrophotometric assay according to Garcia-Echverria et al. (BBRC, 191, (1993), 70-75). This method is based on the high trans selectivity of chymotrypsin for peptides of the type N-succinyl-ala-ala-pro-phe-p-nitroanilide. The peptides cleavage liberated the para-nitroaniline moiety that could be detected and quantitated at 390 nm. The hydrolysis of the cis form was limited by the rate of cis-trans isomerisation carried out by cyclophilin A. The peptide was made up in a solution of […] LiCl in 2,2,2-trifluoroethanol at 470 mM to enhance the cis conformer peptides population. The assay was performed on the split beam spectrophotometer and the water bath was set at 5° C. Cyclophilin A (7500 pmol/mg total enzyme concentration; Sigma) were dissolved at 20 nM in a buffer (35 mM HEPES and 0.26 mg/ml chymotrypsin (specific activity 50 units/mg), pH 7.8 with KOH) and were incubated for 6 minutes at room temperature followed by 54 minutes in the water bath. […] Then 3.5 ml of the incubated cyclophilin was added to the sample cuvette. […] Peptide was added at 25 μM to initiate the reaction and the change in absorbance was monitored at 10 data points per second. As a control, rates were also determined for a parallel reaction that lacked cyclophilin. These blank rates of peptide hydrolysis (i.e. in the absence of cyclophilin) were subtracted from rates in the presence of cyclophilin A.
The initial rates obtained from the PPlase assays were analysed by first order regression analysis by using first order transformation of the traces of the time course of the change in the absorbance at 390 nm. Total enzyme concentration (Et), the inhibitor dissociation constant (Ki) and the rate constant for the rate limiting reaction was calculated with the software FigSyS (2003, Biosoft) by fitting the data obtained from the regression analysis in the tight binding inhibitor multiprotein equation.
Once Et, Ki and k were calculated by the computer for a given set of data, a graphic representation of the data was plotted and the line fitted to the points assuming tight inhibitor binding to a single protein, defined by the following equations: v=K*Et*P−K(B−sqrt(B*B−4*C))/2 where B=Et*P+I+Ki and C=Et*P*I.

CD4+ PBMCs = assay: Mixed lymphocyte reaction, proliferative response of CD4+ PBMCs; type: cell-based; conditions: for immunosuppressive activity (interpretation of Table 2): mixed lymphocyte reaction, 1 μg/ml; for % Stimulation (relative): cyclosporin 1 μg/ml, five days, [3H]-thymidine incorporation
Description: In this assay, cyclosporins were dissolved in ethanol (10 mg/ml). Freshly isolated CD4^+ PBMCs from two healthy donors were mixed subsequent to inactivation by irradiation of one of the populations (stimulator cells; S). […] R) was determined by [^3H]-thymidine incorporation. The assay was conducted reciprocally with the two cell populations, each being inactivated and stimulated in turn. Stimulation (%) of responder cells was calculated by the formula: […] Sample refers to a mixture of stimulator and responder cells. Background represents a control in which only stimulator cells are mixed.

[6] = system: HCV replicon (genotype 1 b) in Huh 5-2 cells; conditions: EC50 derived from RNA titers by quantitative RT-PCR; asterisk = lower of two independently determined values
Description: (§1) Assays used Huh 5-2 cells that contained a bicistronic RNA encoding a firefly luciferase-ubiquitin-neomycin phosphotransferase fusion protein and HCV proteins NS3-5. The viral sequences originated from an HCV virus of genotype 1 b. Cells were cultured in RPMI 1640 medium (Gibco) supplemented with 10% fetal calf serum, 2 mM glutamine (Life Technologies), 1× non-essential amino acids (Life Technologies), 100 u/ml penicillin, 100 μg/ml streptomycin and 250 μg/ml G418 (Geneticin, Life Technologies) at 37° C. and 5% CO2. For antiviral (replication) assays, cells were seeded at a density of 7000 cells/well in 96-well View Plates™ (Packard) in the same medium except for G418. After a 24-h incubation, medium was removed, serial dilutions of test compounds in medium were added, and cells were incubated for an additional 72 h.
Results from these experiments permitted calculation of EC50 for the different cyclosporins, which is the effective concentration required to inhibit HCV replicon replication by 50%, and of CC50, which is the concentration required that inhibits the proliferation of exponentially growing cells by 50%, and a selectivity index SI, which is the ratio between CC50 and EC50.

[7] = system: HCV replicon (genotype 1 b) in Huh 5-2 cells
Description: as §1
Antiviral effects were estimated either by luciferase assay or quantitative RT-PCR. To carry out luciferase assays, medium was removed, and cells were washed with PBS. Subsequent to lysis in 50 μl of Glo-lysis buffer (Promega) for 15 min, 50 μl of Stead-Glo Luciferase Assay Reagent (Promega) were added to cell lysates. Luciferase activity was measured using a luminometer, and the signal from each test well was expressed as a percentage of the signal measured in wells of cultures not exposed to a test compound. […]

C/C=C/C[C@@H](C)C(=O)[C@H]1C(=O)N[C@@H](C(C)C)C(=O)N(C)CC(=O)N(C)[C@@H](CC(C)C)C(=O)N[C@@H](C(C)C)C(=O)N(C)[C@@H](CC(C)C)C(=O)N[C@@H](C)C(=O)N[C@H](C)C(=O)N(C)[C@@H](CC(C)C)C(=O)N(C)[C@@H](CC(C)C)C(=O)N(C)[C@@H](C(C)C)C(=O)N1C [PSC 833]
HCV RNA accumulation was inhibited ([1]; MH-14 cells): not

C/C=C/C[C@@H](C)[C@@H](O)[C@H]1C(=O)N[C@@H](CC)C(=O)N(C)[C@H](C)C(=O)N(CC)[C@@H](C(C)C)C(=O)N[C@@H](C(C)C)C(=O)N(C)[C@@H](CC(C)C)C(=O)N[C@@H](C)C(=O)N[C@H](C)C(=O)N(C)[C@@H](CC(C)C)C(=O)N(C)[C@@H](CC(C)C)C(=O)N(C)[C@@H](C(C)C)C(=O)N1C [[D-MeAla]^3-[EtVal]^4-CsA]
further increase in cyclophilin binding activity by substitution in position 3 (cyclophilin): ≥ 2 fold | tolerability of oral doses ([2]; doses of 50 to 1600 mg in a micro-emulsion in water): well tolerated | side effects ([2]; oral doses 50 to 1600 mg, not dose-related): Mild and short-lived side effects were observed including nausea, vomiting, abdominal pain, mild headaches | antiviral activity [3]: dose-dependent antiviral activity | outcome of cultures in the presence of G418 (rebound phase) [4]: the cultures died | higher affinity for cyclophilin compared to [MeIle]4-CsA ([5]; cyclophilin A): ~6 fold | k [5]: 0.16 ± 0.0074 s − 1 | Et [5]: 7500 pmol/mg | immunosuppressive activity (interpretation of Table 2) (CD4+ PBMCs): essentially devoid of immunosuppressive activity

C/C=C/C[C@@H](C)[C@@H](O)[C@H]1C(=O)N[C@@H](CC)C(=O)N(C)CC(=O)N(C)[C@@H]([C@@H](C)CC)C(=O)N[C@@H](C(C)C)C(=O)N(C)[C@@H](CC(C)C)C(=O)N[C@@H](C)C(=O)N[C@H](C)C(=O)N(C)[C@@H](CC(C)C)C(=O)N(C)[C@@H](CC(C)C)C(=O)N(C)[C@@H](C(C)C)C(=O)N1C [[MeIle]^4-CsA]
SI values [6]: 73 | effectiveness in reducing HCV RNA titer relative to CsA ([1]; MH-14 cells): about equally as effective as CsA | EC50 +/− Std. Dev. ([7]; luciferase assay, 72 h): 0.22 µg/mL (≈ 0.183 µM) | Selectivity index ([7]; ratio between CC50 (MTT) and EC50 (luciferase)): 64 | k [5]: 0.17 ± 0.0068 s − 1 | Et [5]: 7500 pmol/mg | % Stimulation (relative) (CD4+ PBMCs; co-culture R1 × S2): 84% | % Stimulation (relative) (CD4+ PBMCs; co-culture R2 × S1): 75% | immunosuppressive activity (interpretation of Table 2) (CD4+ PBMCs): essentially devoid of immunosuppressive activity

Cyclosporin A [CsA]
higher concentration needed for the same replication inhibiting effect as [D-MeAla]3-[EtVal]4-CsA [3]: 10 fold | antiviral activity [3]: dose-dependent antiviral activity | reduction of HCV RNA titer ([1]; 7-day exposure, 1 μg/ml): about 200 fold | HCV RNA accumulation was inhibited ([1]; MH-14 cells): inhibited | k [5]: 0.17 ± 0.0069 s − 1 | Et [5]: 7500 pmol/mg
